In one experiment the target is T1, human FLT3-ITD enzyme (Homo sapiens, UniProt P36888).
T1 sequence (P36888 1-993): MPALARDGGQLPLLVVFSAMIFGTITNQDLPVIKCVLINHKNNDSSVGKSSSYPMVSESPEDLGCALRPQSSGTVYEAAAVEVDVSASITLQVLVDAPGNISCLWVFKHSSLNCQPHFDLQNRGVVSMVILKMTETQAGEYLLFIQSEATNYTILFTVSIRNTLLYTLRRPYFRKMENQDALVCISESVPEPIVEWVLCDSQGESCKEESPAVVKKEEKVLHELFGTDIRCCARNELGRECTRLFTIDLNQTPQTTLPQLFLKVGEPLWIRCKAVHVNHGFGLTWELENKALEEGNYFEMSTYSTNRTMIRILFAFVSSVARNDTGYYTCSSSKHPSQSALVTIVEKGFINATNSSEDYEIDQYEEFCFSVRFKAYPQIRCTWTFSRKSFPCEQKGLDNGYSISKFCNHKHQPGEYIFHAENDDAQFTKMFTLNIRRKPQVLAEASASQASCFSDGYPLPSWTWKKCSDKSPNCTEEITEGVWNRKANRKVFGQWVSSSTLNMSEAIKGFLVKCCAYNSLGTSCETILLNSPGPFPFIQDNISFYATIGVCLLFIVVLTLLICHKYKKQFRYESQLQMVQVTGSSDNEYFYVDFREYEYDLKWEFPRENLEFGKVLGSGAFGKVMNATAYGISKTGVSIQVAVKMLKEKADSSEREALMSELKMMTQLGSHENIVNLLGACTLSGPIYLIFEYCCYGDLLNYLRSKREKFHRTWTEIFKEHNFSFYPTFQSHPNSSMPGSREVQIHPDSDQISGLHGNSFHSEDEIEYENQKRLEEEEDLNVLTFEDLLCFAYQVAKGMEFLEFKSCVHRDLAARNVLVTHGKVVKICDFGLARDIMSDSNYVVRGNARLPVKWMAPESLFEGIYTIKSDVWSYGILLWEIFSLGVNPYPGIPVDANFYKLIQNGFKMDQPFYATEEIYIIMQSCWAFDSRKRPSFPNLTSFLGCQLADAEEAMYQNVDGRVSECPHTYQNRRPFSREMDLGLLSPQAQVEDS
As to the kind of experiment: FLT3 enzyme inhibitory ability (ADP-Glo kinase assay). The settings on record: human FLT3-ITD enzyme 10 ng, ATP 10 μM, 25° C. 1 hour. It counts as biochemical. The procedure: The inhibitory activities of the example compounds according to the present invention to the FLT3-ITD enzyme were evaluated. Specifically, the compound of the present invention was reacted with a purified human FLT3-ITD enzyme (Signalchem). A composition of 40 mM Tris-HCl pH 7.4, 20 mM MgCl2, 0.5 mg/mL BSA and 50 μM DTT was used as a reaction buffer, and reactions of all test matters were performed on the reaction buffer. Upon the test, human FLT3-ITD enzyme (10 ng), purified ATP (10 μM) and a specific substrate solution were reacted at 25° C. for 1 hour, and then the enzyme activity was identified using an in vitro ADP-Glo™ kinase assay (Promega). The enzyme activity reaction solution, the ADP-Glo reaction solution and the enzyme ability detection solution were reacted in a ratio of 2:2:1, and the activity inhibition degree of the enzyme was measured as luminescence. Using the solvent-treated group that was not treated with the compound as a control group, the enzyme activity inhibition degree according to the treatment concentration of each compound was calculated based on the enzyme activity fluorescence degree, and the concentration of each compound that inhibited 50%, IC50 (nM), was determined using Prism Software (version 5.01, GraphPad).
In general terms: ADP-Glo first removes unused ATP, then detects ADP through luciferase.

The next experiment deals with T2, human GST-HPK1 (1-346) (Homo sapiens, UniProt Q92918).
T2 construct: purified human GST-HPK1 (1-346, Signalchem) enzyme; purchased Signalchem
T2 sequence (Q92918 1-346): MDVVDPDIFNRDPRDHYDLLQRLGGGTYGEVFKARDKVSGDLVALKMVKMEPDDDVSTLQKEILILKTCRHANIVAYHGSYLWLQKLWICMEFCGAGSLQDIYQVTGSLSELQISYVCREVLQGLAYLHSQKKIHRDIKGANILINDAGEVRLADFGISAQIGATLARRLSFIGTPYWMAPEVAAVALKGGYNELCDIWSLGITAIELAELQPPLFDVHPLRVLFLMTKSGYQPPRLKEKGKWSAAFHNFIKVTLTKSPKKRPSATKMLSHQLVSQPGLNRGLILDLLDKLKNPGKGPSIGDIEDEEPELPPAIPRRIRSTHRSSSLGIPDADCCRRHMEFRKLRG
Put plainly: HPK1 enzyme inhibitory ability (ADP-Glo kinase assay). The settings on record: human GST-HPK1 3 ng, ATP 3 uM, 25° C. 2 hours. It counts as biochemical. The procedure:
In order to evaluate the inhibitory activities of the example compounds according to the present invention on the HPK1 (hematopoietic progenitor kinase 1) enzyme, the following experiment was performed. The example compounds were reacted with the purified human GST-HPK1 (1-346, Signalchem) enzyme to evaluate the enzyme inhibitory ability by the following method. As the reaction buffer, a composition of 40 mM Tris-HCl pH 7.4, 20 mM MgCl2, 0.5 mg/mL BSA and 50 uM DTT was used, and reactions of all test matters were performed on the reaction buffer. Upon the test, the human GST-HPK1 (3 ng) enzyme, the purified ATP (3 uM) and a specific substrate solution were reacted at 25° C. for 2 hours, and then the enzyme activity was identified using an in vitro ADP-Glo™ kinase assay (promega). The enzyme activity reaction solution, the ADP-Glo reaction solution and the enzyme ability detection solution were reacted in a ratio of 2:2:1 to measure luminescence. The enzyme activity inhibition degree according to the treatment concentrations of the respective compounds was calculated based on the fluorescence of the enzyme activity of the solvent control group that was not treated with the compound, where the concentration of each compound that inhibited enzyme activity inhibition by 50% was determined as an IC50 (nM) value.

Molecules are shown by their SMILES.

Broadly, the IC50 is the concentration needed to halve the response being measured. Read a low IC50 as inhibition by little substance. The compound `COc1cc(-c2cnn(C)c2)ccc1Nc1nc(N2N=CCC2c2ccccc2)c2sccc2n1` (stereo not drawn) [Example 42, N-(2-methoxy-4-(1-methyl-1H-pyrazol-4-yl)phenyl)-4-(5-phenyl-4,5-dihydro-1H-pyrazol-1-yl)thieno[3,2-d]pyrimidin-2-amine] showed a concentration for half-maximal inhibition (IC50) against human FLT3-ITD enzyme greater than 500 nM.
The same measure, in the same setting: next, `Cc1cc(Nc2nc(N3N=CCC3c3ccccc3)c3sccc3n2)cc(C)c1OCCCN1CCCC1` (stereo not drawn) [Example 49, N-(3,5-dimethyl-4-(3-(pyrrolidin-1-yl)propoxy)phenyl)-4-(5-phenyl-4,5-dihydro-1H-pyrazol-1-yl)thieno[3,2-d]pyrimidin-2-amine]: greater than 500 nM; `Cc1cc(Nc2nc(N3N=CCC3c3ccccc3)c3sccc3n2)cc(C)c1OCCCN1CCN(C)CC1` (stereo not drawn) [Example 50, N-(3,5-dimethyl-4-(3-(4-methylpiperazin-1-yl)propoxy)phenyl)-4-(5-phenyl-4,5-dihydro-1H-pyrazol-1-yl)thieno[3,2-d]pyrimidin-2-amine]: greater than 500 nM; `CN1CCN(c2ccc(Nc3nc(N4N=CCC4c4ccccc4)c4sccc4n3)cc2C(F)(F)F)CC1` (stereo not drawn) [Example 53, N-(4-(4-methylpiperazin-1-yl)-3-(trifluoromethyl)phenyl)-4-(5-phenyl-4,5-dihydro-1H-pyrazol-1-yl)thieno[3,2-d]pyrimidin-2-amine]: greater than 500 nM.
On the same count and under the same terms, under `CN1CCN(Cc2ccc(Nc3nc(N4N=CCC4c4ccccc4)c4sccc4n3)cc2C(F)(F)F)CC1` (stereo not drawn) [Example 54, N-(4-((4-methylpiperazin-1-yl)methyl)-3-(trifluoromethyl)phenyl)-4-(5-phenyl-4,5-dihydro-1H-pyrazol-1-yl)thieno[3,2-d]pyrimidin-2-amine] stands greater than 500 nM; under `CN1CCN(C2CCN(c3c(F)cc(Nc4nc(N5N=CCC5c5ccccc5)c5sccc5n4)cc3F)CC2)CC1` (stereo not drawn) [Example 55, N-(3,5-difluoro-4-(4-(4-methylpiperazin-1-yl)piperidin-1-yl)phenyl)-4-(5-phenyl-4,5-dihydro-1H-pyrazol-1-yl)thieno[3,2-d]pyrimidin-2-amine], greater than 500 nM; under `CCN1CCN(c2c(F)cc(Nc3nc(N4N=CCC4c4ccccc4)c4sccc4n3)cc2F)CC1` (stereo not drawn) [Example 56, N-(4-(4-ethylpiperazin-1-yl)-3,5-difluorophenyl)-4-(5-phenyl-4,5-dihydro-1H-pyrazol-1-yl)thieno[3,2-d]pyrimidin-2-amine], greater than 500 nM.
At human GST-HPK1 (1-346), `COc1cc(N2CCN(C)CC2)ccc1Nc1nc(N2OCC[C@H]2c2ccccc2)c2cc[nH]c2n1` [Example 80, (S)-N-(2-methoxy-4-(4-methylpiperazin-1-yl)phenyl)-4-(3-phenylisoxazolidin-2-yl)-7H-pyrrolo[2,3-d]pyrimidin-2-amine] yielded an IC50 greater than 500 nM.
Same read-out and setting: under `c1ccc([C@@H]2CCON2c2nc(Nc3ccc(N4CCC(N5CCN(C6CC6)CC5)CC4)cc3)nc3[nH]ccc23)cc1` [Example 86, (S)-N-(4-(4-(4-cyclopropylpiperazin-1-yl)piperidin-1-yl)phenyl)-4-(3-phenylisoxazolidin-2-yl)-7H-pyrrolo[2,3-d]pyrimidin-2-amine] stands greater than 500 nM.
Same read-out and setting: under `COc1cc(N2CCC(N3CCN(C)CC3)CC2)ccc1Nc1nc(N2OCC[C@H]2c2ccccc2)c2cc[nH]c2n1` [Example 88, (S)-N-(2-methoxy-4-(4-(4-methylpiperazin-1-yl)piperidin-1-yl)phenyl)-4-(3-phenylisoxazolidin-2-yl)-7H-pyrrolo[2,3-d]pyrimidin-2-amine] stands greater than 500 nM.
On the same count and under the same terms, under `COc1cc(C(=O)N2CCC(N3CCOCC3)CC2)ccc1Nc1nc(N2OCC[C@H]2c2ccccc2)c2cc[nH]c2n1` [Example 97, (S)-(3-methoxy-4-((4-(3-phenylisoxazolidin-2-yl)-7H-pyrrolo[2,3-d]pyrimidin-2-yl)amino)phenyl)(4-morpholinopiperidin-1-yl)methanone] stands greater than 500 nM.
On to `COc1cc(C(=O)N2CCC(N3CCN(C)CC3)CC2)ccc1Nc1nc(N2OCC[C@H]2c2ccccc2)c2cc[nH]c2n1` [Example 98, (S)-(3-methoxy-4-((4-(3-phenylisoxazolidin-2-yl)-7H-pyrrolo[2,3-d]pyrimidin-2-yl)amino)phenyl)(4-(4-methylpiperazin-1-yl)piperidin-1-yl)methanone], for which the half-maximal inhibitory concentration (IC50) on human GST-HPK1 (1-346) was greater than 500 nM.
The same measure, in the same setting: under `Cc1cc(Nc2nc(N3OCC[C@H]3c3ccccc3)c3cc[nH]c3n2)cc(C)c1OCCCN1CCN(C)CC1` [Example 102, (S)-N-(3,5-dimethyl-4-(3-(4-methylpiperazin-1-yl)propoxy)phenyl)-4-(3-phenylisoxazolidin-2-yl)-7H-pyrrolo[2,3-d]pyrimidin-2-amine] stands no less than 250 nM.
The same measure, in the same setting: under `CN(C)C(=O)Cn1cc(Nc2nc(N3OCC[C@H]3c3ccccc3)c3cc[nH]c3n2)cn1` [Example 103, S-N,N-dimethyl-2-(4-((4-(3-phenylisoxazolidin-2-yl)-7H-pyrrolo[2,3-d]pyrimidin-2-yl)amino)-1H-pyrazol-1-yl)acetamide] stands greater than 500 nM; under `COc1cc2c(cc1Nc1nc(N3OCC[C@H]3c3ccccc3)c3cc[nH]c3n1)CN(C)CC2` [Example 106, (S)-6-methoxy-2-methyl-N-(4-(3-phenylisoxazolidin-2-yl)-7H-pyrrolo[2,3-d]pyrimidin-2-yl)-1,2,3,4-tetrahydroisoquinolin-7-amine], greater than 500 nM; under `COc1cc2c(cc1Nc1nc(N3OCC[C@H]3c3ccccc3)c3cc[nH]c3n1)CNCC2` [Example 107, (S)-6-methoxy-N-(4-(3-phenylisoxazolidin-2-yl)-7H-pyrrolo[2,3-d]pyrimidin-2-yl)-1,2,3,4-tetrahydroisoquinolin-7-amine], greater than 500 nM.
The same measure, in the same setting: next, `COc1cc2c(cc1Nc1nc(N3OCC[C@H]3c3ccccc3)c3cc[nH]c3n1)C(=O)NCC2` [Example 108, (S)-6-methoxy-7-((4-(3-phenylisoxazolidin-2-yl)-7H-pyrrolo[2,3-d]pyrimidin-2-yl)amino)-3,4-dihydroisoquinolin-1(2H)-one]: no less than 250 nM.
Turning to `CC(=O)N1CCc2cc(Nc3nc(N4OCC[C@H]4c4ccccc4)c4cc[nH]c4n3)ccc2C1` [Example 112, (S)-1-(6-((4-(3-phenylisoxazolidin-2-yl)-7H-pyrrolo[2,3-d]pyrimidin-2-yl)amino)-3,4-dihydroisoquinolin-2(1H)-yl)ethan-1-one], the IC50 at human GST-HPK1 (1-346) is greater than 500 nM.

(Values after patent publication US20220242870A1, “HETEROCYCLE-FUSED PYRIMIDINE DERIVATIVE AND USE THEREOF” (VORONOI Inc., priority 2019, published 2022).)
